The results in this text go back to ChEMBL document CHEMBL2010677, “Anti-inflammatory and PPAR transactivational effects of secondary metabolites from the roots of Asarum sieboldii” (Bioorg Med Chem Lett, 2012).

pEC50, pIC50: −log10 of the molar value.

Series [1] concerns the target T1, Peroxisome proliferator-activated receptor delta (Homo sapiens, UniProt Q03181).
T1 sequence (Q03181 whole entry): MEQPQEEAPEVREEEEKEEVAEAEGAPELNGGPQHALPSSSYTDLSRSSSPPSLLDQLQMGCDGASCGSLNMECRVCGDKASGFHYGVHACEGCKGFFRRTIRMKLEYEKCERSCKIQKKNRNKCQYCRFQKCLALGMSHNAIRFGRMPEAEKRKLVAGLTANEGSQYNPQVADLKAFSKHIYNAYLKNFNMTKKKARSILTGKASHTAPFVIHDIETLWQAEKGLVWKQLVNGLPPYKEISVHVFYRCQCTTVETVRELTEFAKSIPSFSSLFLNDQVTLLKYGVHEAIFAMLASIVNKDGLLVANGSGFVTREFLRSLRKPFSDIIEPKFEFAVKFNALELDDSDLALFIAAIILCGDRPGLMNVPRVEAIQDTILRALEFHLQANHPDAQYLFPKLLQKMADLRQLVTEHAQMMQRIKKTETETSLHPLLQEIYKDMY
The series can be described thus: Transactivation of GAL4-fused PPARbeta LBD expressed in HepG2 cells after 20 hrs by luminescence assay. The format is cell-based.

The nature of series [2]: (§1) Transactivation of PPAR expressed in HepG2 cells after 20 hrs by luminescence assay. The format is cell-based. Particulars: HepG2, 20 h.
In series [3] the target is T2, Peroxisome proliferator-activated receptor alpha (Homo sapiens, UniProt Q07869).
T2 sequence (Q07869 whole entry): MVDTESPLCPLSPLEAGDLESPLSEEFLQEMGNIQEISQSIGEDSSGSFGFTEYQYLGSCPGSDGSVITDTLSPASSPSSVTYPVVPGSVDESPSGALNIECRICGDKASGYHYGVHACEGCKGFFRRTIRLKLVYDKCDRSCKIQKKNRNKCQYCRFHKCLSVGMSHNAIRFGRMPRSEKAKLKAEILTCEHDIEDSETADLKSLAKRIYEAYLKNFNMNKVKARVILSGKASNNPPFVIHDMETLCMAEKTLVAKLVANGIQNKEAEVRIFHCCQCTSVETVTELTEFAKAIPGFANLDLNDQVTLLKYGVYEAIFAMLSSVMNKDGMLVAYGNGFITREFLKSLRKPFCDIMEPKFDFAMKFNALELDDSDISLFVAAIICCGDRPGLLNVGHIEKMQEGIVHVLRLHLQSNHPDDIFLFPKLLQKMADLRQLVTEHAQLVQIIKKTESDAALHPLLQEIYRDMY
The series is described as follows: (§2) Transactivation of GAL4-fused PPARalpha LBD expressed in HepG2 cells after 20 hrs by luminescence assay. The format is cell-based.

Series [4] addresses T3, Peroxisome proliferator-activated receptor gamma (Homo sapiens, UniProt P37231).
T3 sequence (P37231 whole entry): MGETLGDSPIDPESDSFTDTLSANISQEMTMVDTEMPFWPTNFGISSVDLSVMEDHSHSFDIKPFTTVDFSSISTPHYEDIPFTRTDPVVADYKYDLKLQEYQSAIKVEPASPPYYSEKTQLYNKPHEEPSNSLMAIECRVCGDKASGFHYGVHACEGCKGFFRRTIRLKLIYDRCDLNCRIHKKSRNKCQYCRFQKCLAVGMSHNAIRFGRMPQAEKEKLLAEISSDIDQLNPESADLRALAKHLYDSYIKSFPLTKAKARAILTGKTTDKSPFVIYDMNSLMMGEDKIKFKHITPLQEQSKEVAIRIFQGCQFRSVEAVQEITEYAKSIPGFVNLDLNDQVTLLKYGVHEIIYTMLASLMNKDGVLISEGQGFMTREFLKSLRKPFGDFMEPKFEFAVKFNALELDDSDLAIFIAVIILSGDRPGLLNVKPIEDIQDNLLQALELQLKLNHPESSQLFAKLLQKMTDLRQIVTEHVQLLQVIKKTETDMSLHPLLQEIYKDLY
The series can be described thus: Transactivation of GAL4-fused PPARgamma LBD expressed in HepG2 cells after 20 hrs by luminescence assay. The format is cell-based.

The test system of series [5] is HepG2. The series can be described thus: Cytotoxicity against human HepG2 cells by MTT assay. The format is cell-based. (Tetrazolium dyes change colour on reduction, which living cells bring about.)
The target in series [6] is T4, Peroxisome proliferator-activated receptor alpha (Homo sapiens) (UniProt Q07869).
T4 sequence (whole entry): T2 sequence (Q07869 whole entry)
Described as §2. The format is cell-based.

Series [7] in a line: Inhibition of TNFalpha-induced NFkappaB transcriptional activity in human HepG2 cells pretreated for 1 hr before TNFalpha challenge by luciferase reporter gene analysis.
For series [8], the system named is HepG2. The series is described as follows: Inhibition of NFkappaB-mediated iNOS mRNA expression in human TNFalpha-stimulated human HepG2 cells pretreated for 1 hr before TNFalpha challenge measured after 6 hrs by RT-PCR analysis. The format is cell-based.
Series [9] relates to HepG2. The series is described as follows: Inhibition of NFkappaB-mediated COX2 mRNA expression in human TNFalpha-stimulated human HepG2 cells by RT-PCR analysis. The format is cell-based.
The subject of series [10] is HepG2. The series is described as §1. The format is cell-based.

In series [1], `CCCc1c(OCCCOc2ccc(OCC(=O)O)cc2)ccc(C(C)=O)c1O` gave a pEC50 of 6.19.
On to `COc1cc([C@H]2OC[C@H]3[C@@H]2CO[C@H]3c2ccc3c(c2)OCO3)cc(OC)c1O`, for which the pEC50 in series [2] was 5.21; in series [3], under 4.22; in series [4], 4.65; in [1], 4.32. Also, the Activity entry in series [5] is given as “Non-toxic”.
Turning to `CC(C)(O)C1=C[C@@H](O)[C@@](C)(O)CC1`, the pEC50 in series [2] is 5.37; in series [3] it was 4.71; in [4], 4.66; in series [1], 4.31. Moreover, the results for the Activity entry in [6] and in series [5] were “Dose-dependent effect” and “Non-toxic”, respectively.
Consider `COc1ccc([C@@H](O)[C@H](O)CO)cc1OC`, for which the pEC50 in [2] is 4.69; in [3], 4.80; in [4], 4.71; in series [1], 4.65. In addition, the Activity result was “Dose-dependent effect” in series [6] and “Non-toxic” in series [5].
As to `C/C=C\CC/C=C/C=C/C(=O)NCC(C)C`, the negative-log EC50 (pEC50) in series [2] is 5.70; in series [3] it was 5.40; in series [4] it was 5.44; in [1], 5.31. Moreover, the results for the Activity result in [6] and in series [5] were “Dose-dependent effect” and “Non-toxic”, respectively.
In the case of `CC=C/C=C\CC/C=C/C=C/C(=O)NCC(C)C`, the pIC50 in series [7] was 5.19. Also, the inhibition entry in series [8] and in series [9] was “Dose-dependent effect” each time. Further, the pEC50 in [2] was 4.23; in [3], 4.34; in [4] it was 4.28; in series [1], 4.29. For the same molecule, the Activity entry in series [5] is reported as “Non-toxic”.
For `CC1=CC(=O)C2C(C1=O)C2(C)C` (racemic), in [2], the pEC50 was under 4.22. For the same molecule, the Activity result in series [5] is reported as “Non-toxic”.
On to `c1cc2c(cc1[C@H]1OC[C@H]3[C@@H]1CO[C@H]3c1ccc3c(c1)OCO3)OCO2` [ASARININ], for which the pIC50 in series [7] was 5.15. The inhibition result in series [8] and in series [9] was “Dose-dependent effect” in each case. The pEC50 in series [2] was under 4.22. In addition, the Activity entry in [5] is given as “Non-toxic”.
In series [2], `CC(C)(Oc1ccc(CCNC(=O)c2ccc(Cl)cc2)cc1)C(=O)O` [BEZAFIBRATE] had a pEC50 of 5.98.
Take `CC(C)(Oc1ccc(C2CC2(Cl)Cl)cc1)C(=O)O` (stereo not drawn) [CIPROFIBRATE]: the pEC50 in series [3] is 6.05.
In the case of `C=CCc1ccc(OC)c(OC)c1` [METHYLEUGENOL], the pEC50 in [2] was 4.55; in series [3], 4.33; in series [4], 4.40; in series [1] it was 4.30. Also, the Activity result in [5] is given as “Non-toxic”.
`COc1cc([C@H]2OC[C@H]3[C@@H]2CO[C@H]3c2ccc(O)c(OC)c2)ccc1O` [PINORESINOL]: the pEC50 in [2] is 4.99; in [3], under 4.22; in [4], 4.23; in series [1], 4.31. The Activity entry was “Dose-dependent effect” in [10] and “Non-toxic” in series [5].
Turning to `COc1cc([C@@H]2OC[C@@H]3[C@H]2CO[C@H]3c2ccc3c(c2)OCO3)ccc1O` [PIPERITOL], the pEC50 in [2] is 4.68; in [3] it was 4.27; in series [4], 4.72; in [1], 4.47. Also, the Activity result in series [5] is recorded as “Non-toxic”.
On the same counts, the results for `COc1cc([C@H]2OC[C@@H]3[C@H]2CO[C@H]3c2ccc3c(c2)OCO3)ccc1O` [PLUVIATILOL] are 5.77, under 4.22, 4.31, 4.27 and “Non-toxic”.
For `c1cc2c(cc1[C@H]1OC[C@H]3[C@@H]1CO[C@@H]3c1ccc3c(c1)OCO3)OCO2` [SESAMIN], the pIC50 in series [7] was 5.03. Besides, the inhibition result in [8] and in series [9] was “Dose-dependent effect” throughout. Further, in [2], the pEC50 is under 4.22. Besides, the Activity entry in series [5] is given as “Non-toxic”.
On to `O=C(O)c1cc(/N=N/c2ccc(S(=O)(=O)Nc3ccccn3)cc2)ccc1O` [SULFASALAZINE], for which the pIC50 in series [7] was 6.05.

One may read the pEC50 as the negative decadic logarithm of the EC50, by convention in mol/L. A lower pEC50 goes with a large EC50. As a reminder, the pIC50 is the negative decadic logarithm of the IC50, by convention in mol/L.
